Laboratory results as given in US8071768B2, “Alkylquinoline and alkylquinazoline kinase modulators” (Janssen Pharmaceutica, N.V., priority 2005, dated 2011).
Where a name gives a salt, the structure may show the parent alone.

Columns and labels:
[1] = target: T1, isolated kinase domain of the human c-kit receptor (Homo sapiens, UniProt P10721); assay: c-Kit Fluorescence Polarization Kinase Assay; assay type: biochemical; details: uncertainty ±10%; read-out: ckit IC50
T1 construct: isolated kinase domain of the human c-kit receptor; purchased ProQinase lot SP005
Procedure: c-Kit Fluorescence Polarization Kinase Assay
The compounds of the present invention are also specific inhibitors of c-Kit. Selection of preferred compounds of Formula I for use as c-Kit inhibitors was performed in the following manner using an in vitro kinase assay to measure inhibition of the isolated kinase domain of the human c-kit receptor in a fluorescence polarization (FP) protocol. The c-kit assay utilized the fluorescein-labeled phosphopeptide and the anti-phosphotyrosine antibody included in the Panvera Phospho-Tyrosine Kinase Kit (Green) supplied by Invitrogen. When c-kit phosphorylated the poly Glu4Tyr, the fluorescein-labeled phosphopeptide was displaced from the anti-phosphotyrosine antibody by the phosphorylated poly Glu4Tyr, thus decreasing the FP value. The c-kit kinase reaction was incubated at room temperature for 45 minutes under the following conditions: 1 nM c-kit (ProQinase, lot SP005), 100 ug/mL poly Glu4Tyr, 50 uM ATP, 5 mM MgCl2, 1 mM DTT, 0.01% Tween-20, 1% DMSO or compound in […], pH 7.5. The kinase reaction was stopped with the addition of EDTA. The fluorescein-labeled phosphopeptide and the anti-phosphotyrosine antibody were added and incubated for 30 minutes at room temperature and fluorescence polarization was read. Data points were an average of triplicate samples. Inhibition and IC50 data analysis were done with GraphPad Prism using a non-linear regression fit with a multiparamater, sigmoidal dose-response (variable slope) equation.

TrkB = target: T2, TrkB (Homo sapiens, UniProt Q16620); assay: Trk B Fluorescence Polarization Kinase Assay; assay type: biochemical; details: uncertainty ±10%
T2 construct: purchased Upstate 14-507M
Outline: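 The TrkB kinase reaction (50 nM enzyme, 20 ug/mL poly Glu4Tyr, 150 uM ATP, 5 mM MgCl2, 1% DMSO) ran 30 minutes at room temperature and was stopped with EDTA. Phosphorylation was detected by fluorescence-polarization displacement of a fluorescein phosphopeptide from an anti-phosphotyrosine antibody. IC50 came from a variable-slope sigmoidal fit of triplicates.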

T2 sequence (Q16620 32-822): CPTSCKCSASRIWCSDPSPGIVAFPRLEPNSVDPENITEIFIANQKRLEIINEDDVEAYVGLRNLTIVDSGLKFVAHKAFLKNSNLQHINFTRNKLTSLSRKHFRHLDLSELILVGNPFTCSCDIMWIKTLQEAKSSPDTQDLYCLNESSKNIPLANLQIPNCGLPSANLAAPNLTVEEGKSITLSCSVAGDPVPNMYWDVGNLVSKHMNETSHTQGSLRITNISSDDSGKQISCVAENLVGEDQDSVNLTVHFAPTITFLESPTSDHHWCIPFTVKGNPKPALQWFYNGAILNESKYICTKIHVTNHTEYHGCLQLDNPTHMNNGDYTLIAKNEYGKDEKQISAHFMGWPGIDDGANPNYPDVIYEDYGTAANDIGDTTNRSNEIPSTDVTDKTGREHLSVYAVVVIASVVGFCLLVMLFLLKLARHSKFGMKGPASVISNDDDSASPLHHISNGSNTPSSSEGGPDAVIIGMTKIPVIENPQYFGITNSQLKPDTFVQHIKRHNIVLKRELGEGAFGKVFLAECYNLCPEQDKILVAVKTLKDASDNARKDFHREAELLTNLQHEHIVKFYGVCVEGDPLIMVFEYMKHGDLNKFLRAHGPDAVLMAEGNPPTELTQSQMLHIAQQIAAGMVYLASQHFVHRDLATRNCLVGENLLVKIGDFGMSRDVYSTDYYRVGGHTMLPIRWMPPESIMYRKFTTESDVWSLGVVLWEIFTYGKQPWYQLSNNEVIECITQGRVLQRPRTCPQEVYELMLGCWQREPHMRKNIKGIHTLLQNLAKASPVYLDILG
T1 sequence (P10721 589-937 limits assumed): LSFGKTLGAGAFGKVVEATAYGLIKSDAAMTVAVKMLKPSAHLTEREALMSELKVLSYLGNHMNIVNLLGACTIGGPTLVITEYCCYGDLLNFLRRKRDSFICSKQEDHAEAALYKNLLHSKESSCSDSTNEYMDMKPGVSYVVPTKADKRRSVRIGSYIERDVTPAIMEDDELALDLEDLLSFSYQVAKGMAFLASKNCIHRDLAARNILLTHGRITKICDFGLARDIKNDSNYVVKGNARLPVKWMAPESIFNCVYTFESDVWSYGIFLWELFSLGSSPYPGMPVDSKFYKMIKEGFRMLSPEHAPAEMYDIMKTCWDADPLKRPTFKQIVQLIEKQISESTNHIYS

| Compound | IC50 [1] [nM] | IC50 (TrkB) [nM] |
| --- | --- | --- |
| O=C1CCCN1CCOc1ccc2c(C3CCN(C(=O)Nc4ccc(N5CCOCC5)nc4)CC3)ncnc2c1 [Compound 83, 4-{7-[2-(2-Oxo-pyrrolidin-1-yl)-ethoxy]-quinazolin-4-yl}-piperidine-1-carboxylic acid (6-morpholin-4-yl-pyridin-3-yl)-amide] | 25 | 8500 |
| O=C1CCCN1CCCOc1ccc2c(C3CCN(C(=O)Nc4ccc(N5CCOCC5)nc4)CC3)ncnc2c1 [Compound 72, 4-{7-[3-(2-Oxo-pyrrolidin-1-yl)-propoxy]-quinazolin-4-yl}-piperidine-1-carboxylic acid (6-morpholin-4-yl-pyridin-3-yl)-amide] | 23 | 2000 |
| CN1CCN(CCCOc2ccc3c(C4CCN(C(=O)Nc5ccc(N6CCOCC6)nc5)CC4)ncnc3c2)CC1 [Compound 80, 4-{7-[3-(4-Methyl-piperazin-1-yl)-propoxy]-quinazolin-4-yl}-piperidine-1-carboxylic acid (6-morpholin-4-yl-pyridin-3-yl)-amide] | 160 | 9100 |
| COc1cc2ncnc(C3CCN(C(=O)Nc4ccc(C(C)C)cc4)CC3)c2cc1OC [Compound 4, 4-(6,7-Dimethoxy-quinazolin-4-yl)-piperidine-1-carboxylic acid (4-isopropyl-phenyl)-amide] | 610 |  |
| COc1cc2ncnc(C3CCN(C(=O)Nc4ccc(OC(C)C)cc4)CC3)c2cc1OC [Compound 1, 4-(6,7-Dimethoxy-quinazolin-4-yl)-piperidine-1-carboxylic acid (4-isopropoxy-phenyl)-amide hydrochloride] | 82.5 | 220 |
| CC(C)Oc1ccc(NC(=O)N2CCC(c3ncnc4ccc(OCCCN5CCN(C)CC5)cc34)CC2)cc1 [Compound 76, 4-{6-[3-(4-Methyl-piperazin-1-yl)-propoxy]-quinazolin-4-yl}-piperidine-1-carboxylic acid (4-isopropoxy-phenyl)-amide] | 282 | 7900 |
| COc1cc2ncnc(C3CCN(C(=O)Nc4ccc(N5CCOCC5)cc4)CC3)c2cc1OC [Compound 18, 4-(6,7-Dimethoxy-quinazolin-4-yl)-piperidine-1-carboxylic acid (4-morpholin-4-yl-phenyl)-amide] | 158 | 19200 |
| COc1cc2ncnc(C3CCN(C(=O)Nc4ccc(OC5CCC5)nc4)CC3)c2cc1OC [Compound 17, 4-(6,7-Dimethoxy-quinazolin-4-yl)-piperidine-1-carboxylic acid (6-cyclobutoxy-pyridin-3-yl)-amide] | 77.5 | 500 |
| O=C1CCCN1CCCOc1ccc2c(C3CCN(C(=O)Nc4ccc(N5CCOCC5)cc4)CC3)ncnc2c1 [Compound 68, 4-{7-[3-(2-Oxo-pyrrolidin-1-yl)-propoxy]-quinazolin-4-yl}-piperidine-1-carboxylic acid (4-morpholin-4-yl-phenyl)-amide] | 28 | > 20000 |
| O=C1CCCN1CCCOc1ccc2c(C3CCN(C(=O)Nc4ccc(N5CCCC5)nc4)CC3)ncnc2c1 [Compound 89, 4-{7-[3-(2-Oxo-pyrrolidin-1-yl)-propoxy]-quinazolin-4-yl}-piperidine-1-carboxylic acid (6-pyrrolidin-1-yl-pyridin-3-yl)-amide] | 13 | 2700 |
| CC(C)c1ccc(NC(=O)N2CCC(c3ccnc4ccccc34)CC2)cc1 [Compound 5, 4-Quinolin-4-yl-piperidine-1-carboxylic acid (4-isopropyl-phenyl)-amide] |  | 700 |
| CC(C)Oc1ccc(NC(=O)N2CCC(c3ncnc4cc(N(C)C)ccc34)CC2)cc1 [Compound 100, 4-(7-Dimethylamino-quinazolin-4-yl)-piperidine-1-carboxylic acid (4-isopropoxy-phenyl)-amide] |  | 100 |
| O=C(Nc1ccc(N2CCOCC2)cc1)N1CCC(c2ncnc3cc(OCCCN4CCCCC4)ccc23)CC1 [Compound 75] |  | > 20000 |
| COc1cc2ncnc(C3CCN(C(=O)Nc4ccc(N5CCCCCC5)cc4)CC3)c2cc1OC [Compound 70, 4-(6,7-Dimethoxy-quinazolin-4-yl)-piperidine-1-carboxylic acid (4-azepan-1-yl-phenyl)-amide] |  | 2700 |
| O=C(Nc1ccc(N2CCCC2)cc1)N1CCC(c2ncnc3cc(OCCN4CCC[C@H]4CO)ccc23)CC1 [Compound 152, (S)-4-{7-[2-(2-Hydroxymethyl-pyrrolidin-1-yl)-ethoxy]-quinazolin-4-yl}-piperidine-1-carboxylic acid (4-pyrrolidin-1-yl-phenyl)-amide] |  | 32700 |
| CN1CCC(COc2ccc3c(C4CCN(C(=O)Nc5ccc(N6CCOCC6)nc5)CC4)ncnc3c2)CC1 [Compound 108, 4-[7-(1-Methyl-piperidin-4-ylmethoxy)-quinazolin-4-yl]-piperidine-1-carboxylic acid (6-morpholin-4-yl-pyridin-3-yl)-amide] |  | 5400 |
| CC(C)Oc1ccc(NC(=O)N2CCC(c3ncnc4ccc(OCCCN5CCCC5=O)cc34)CC2)cc1 [Compound 101, 4-{6-[3-(2-Oxo-pyrrolidin-1-yl)-propoxy]-quinazolin-4-yl}-piperidine-1-carboxylic acid (4-isopropoxy-phenyl)-amide] |  | 300 |
| O=C(Nc1ccc(N2CCCC2)cc1)N1CCC(c2ncnc3cc(OCCCN4CCC[C@H]4CO)ccc23)CC1 [Compound 161, (S)-4-{7-[3-(2-Hydroxymethyl-pyrrolidin-1-yl)-propoxy]-quinazolin-4-yl}-piperidine-1-carboxylic acid (4-pyrrolidin-1-yl-phenyl)-amide] |  | 6480 |
| CN1CCN(CCCOc2ccc3c(C4CCN(C(=O)Nc5ccc(N6CCOCC6)c(F)c5)CC4)ncnc3c2)CC1 [Compound 81, 4-{7-[3-(4-Methyl-piperazin-1-yl)-propoxy]-quinazolin-4-yl}-piperidine-1-carboxylic acid (3-fluoro-4-morpholin-4-yl-phenyl)-amide] |  | > 20000 |
| CC(C)Oc1ccc(NC(=O)N2CCC(c3ncnc4cc(OCCN5CCCCC5)ccc34)CC2)cc1 [Compound 34, 4-(7-(2-Piperindin-1-yl-ethoxy)-quinazolin-4-yl)-piperidine-1-carboxylic acid (4-isopropoxy-phenyl)-amide] |  | 2800 |
| CC(=O)N1CCC(COc2ccc3c(C4CCN(C(=O)Nc5ccc(N6CCCC6)cc5)CC4)ncnc3c2)CC1 [Compound 163, 4-[7-(1-Acetyl-piperidin-4-ylmethoxy)-quinazolin-4-yl]-piperidine-1-carboxylic acid (4-pyrrolidin-1-yl-phenyl)-amide] |  | 4120 |
| O=C(Nc1ccc(N2CCOCC2)cc1)N1CCC(c2ncnc3cc(OCCN4CCOCC4)ccc23)CC1 [Compound 96, 4-[7-(2-Morpholin-4-yl-ethoxy)-quinazolin-4-yl]-piperidine-1-carboxylic acid (4-morpholin-4-yl-phenyl)-amide] |  | 27900 |
| CS(=O)(=O)NCCCOc1ccc2c(C3CCN(C(=O)Nc4ccc(OC5CCCC5)nc4)CC3)ncnc2c1 [Compound 88, 4-[7-(3-Methanesulfonylamino-propoxy)-quinazolin-4-yl]-piperidine-1-carboxylic acid (6-cyclopentyloxy-pyridin-3-yl)-amide] | 11 | 400 |
| O=C(Nc1ccc(N2CCOCC2)cc1)N1CCC(c2ncnc3cc(N4CC[C@@H](O)C4)ccc23)CC1 [Compound 126, (R)-4-[7-(3-Hydroxy-pyrrolidin-1-yl)-quinazolin-4-yl]-piperidine-1-carboxylic acid (4-morpholin-4-yl-phenyl)-amide] |  | 10200 |
| COCCOc1ccc(NC(=O)N2CCC(c3ncnc4cc(OC)c(OC)cc34)CC2)cc1 [Compound 40, 4-(6,7-Dimethoxy-quinazolin-4-yl)-piperidine-1-carboxylic acid [4-(2-methoxy-ethoxy)-phenyl]-amide] |  | > 42000 |
